Measured values from patent US10266527B2, “T-box riboswitch-binding anti-bacterial compounds” (THE RESEARCH FOUNDATION FOR THE STATE UNIVERSITY OF NEW YORK, priority 2013, dated 2019).

Columns and labels:
Assay type in all cases: cell-based
B. cereus ATCC 7064 [1] = test: Broth microdilution MIC; details: B. cereus ATCC 7064
E. coli ATCC 25922 [2] = test: MBC determination; details: E. coli ATCC 25922
Procedure: (§1) Following 24 h incubation of these subcultures at 37° C., MBC values were recorded as the lowest compound concentration at which no viable colonies were observed.

B. subtilis BGSC 1A1 [3] = test: MBC determination; details: IND = indeterminate
Procedure: as §1

B. cereus ATCC 7064 [4] = test: MBC determination; details: N/O = not observed
Procedure: as §1

E. faecalis ATCC 29212 [5] = test: MBC determination; details: N/O = not observed
Procedure: as §1

P. aeruginosa ATCC 27853 [6] = test: MBC determination
Procedure: as §1

S. aureus ATCC 29213 [7] = test: MBC determination; details: S. aureus ATCC 29213; N/O = not observed
Description: (§2) The identity and purity of both PKZ 6 and 18 was confirmed by mass spectroscopy. Forty commercially available compounds chosen on the basis of initial in silico selections and similarity to our two hits were screened by disc diffusion assay (DDA) to determine their relative antibacterial activity with S. aureus. […] These 14 compounds were further evaluated by minimum inhibitory concentration assays (MIC)^41,42, and minimum bactericidal assays (MBC)^41 to confirm antibacterial activity, determine the concentration at which S. aureus growth is inhibited in liquid culture (MIC) and if they are acting as bacteriostatic or bactericidal agents (MBC). […] Representative embodiments are shown below.
as §1

P. aeruginosa ATCC 27853 [8] = test: Broth microdilution MIC; details: N/O = not observed
S. aureus ATCC 29213 [9] = test: Broth microdilution MIC; details: S. aureus ATCC 29213; N/O = not observed
Description: as §2
(§3) Broth microdilution assays^77, 78 were performed with B. subtilis, and S. aureus to determine the lowest compound concentration inhibiting visible growth, i.e., minimum inhibitory concentration (MIC) of the 4 original compounds. […] The insolubility of the fourth compound may account for its lack of antibacterial activity. […] The MICs of each compound are moderate.
(§4) Strains were grown on trypticase soy agar (TSA) with 5% sheep blood at 37° C. for 24 hours. Five isolated colonies were used to inoculate 5 mL cation-adjusted Mueller-Hinton broth (CAMHB) contained in a 50 mL centrifuge tube. The resulting culture was incubated shaking at 200 rpm for 3 hours at 37° C. and then diluted in CAMHB until its turbidity matched that of a 0.5 McFarland standard (OD625 0.08-0.10). After the culture had been standardized against a 0.5 McFarland standard, it was diluted 1:10 in CAMHB and then 5 μL of this dilution was added to the appropriate wells of a 96-well, flat-bottomed tissue culture plate in which each row contained a twofold dilution series of a particular compound ranging in concentration from 0.25 μg/mL to 512 μg/mL. Each plate also included a sterility control well containing CAMHB to which standardized inoculum was not added and a growth control well containing CAMHB to which 5 μL standardized inoculum was added. […] With the exception of the sterility control well, all wells were inoculated within 15 minutes of inoculum preparation to ensure that the starting concentration of bacteria in each well was approximately 5×10^5 CFU/m L. A Tecan Sunrise microplate absorbance reader was used to measure the OD620 of each well before and after 20 h incubation at 37° C. MIC values were recorded as the lowest compound concentration at which no visible growth was observed after this incubation period.

E. coli ATCC 25922 [10] = test: Broth microdilution MIC (Gram negative specificity control); details: E. coli ATCC 25922; N/O = not observed
S. pneumoniae ATCC 49619 = test: Broth microdilution MIC; details: S. pneumoniae ATCC 49619
B. subtilis BGSC 1A1 [11] = test: Broth microdilution MIC; details: B. subtilis BGSC 1A1; 20 h at 37° C.
Procedure: as §3, §4

E. faecalis ATCC 29212 [12] = test: Broth microdilution MIC; details: N/O = not observed

## Gentamicin [reference compound]
B. cereus ATCC 7064 [1]
  MIC: 1 µg/mL
E. coli ATCC 25922 [2]
  MBC: 1 µg/mL
B. subtilis BGSC 1A1 [3]
  MBC: 0.25 µg/mL
B. cereus ATCC 7064 [4]
  MBC: 2 µg/mL
E. faecalis ATCC 29212 [5]
  MBC: 32 µg/mL
P. aeruginosa ATCC 27853 [6]
  MBC: 4 µg/mL
S. aureus ATCC 29213 [7]
  MBC: 8 µg/mL
P. aeruginosa ATCC 27853 [8]
  MIC: 1 µg/mL
S. aureus ATCC 29213 [9]
  MIC: 0.5 µg/mL
E. coli ATCC 25922 [10]
  MIC: 1 µg/mL
S. pneumoniae ATCC 49619
  MIC: 4 (N/D) μg/mL
B. subtilis BGSC 1A1 [11]
  MIC: 0.125 µg/mL
E. faecalis ATCC 29212 [12]
  MIC: 8 µg/mL
